Measured values: patent US12384751B2, “Allosteric activators of the ALPHA1A-adrenergic receptor” (The Cleveland Clinic Foundation, priority 2019, dated 2025)
Entries after “also recorded” stand apart in the source; their conditions may differ.

Legend:
[1] = system: 3×TG Alzheimer's Disease (AD) mouse model; experiment: Hippocampal CA1 electrophysiology (LTP, input-output, paired-pulse ratio) in 3×TG mice; format: in vivo
Experimental: AD mice were first randomized and sorted into control or treatment groups. […] 14 AD mice from each treatment group received Compound 3 in the drinking water (2.611 mg/kg/bw) to deliver a daily dose near the peak potentiation of the cAMP response in the brain at 10^−8M based upon the PAM assay and pharmacokinetics. This was achieved by adding Compound 3 to the drinking water at 32 uM, assuming the mice drink 6 ml/day, with only 10% of bioavailable drug reaching the brain. The drug was administered in the drinking water for 10 months, starting at age 2 months, then subjected to either different cognitive behavioral tests or electrophysiology at age 12 months to maximize the manifestations of AD symptoms in these mice. Mice are maintained on the drug for the duration of the studies and blinded to the operator.
At 12 months of age mice were subjected to long term potentiation (LTP) (FIG. 25).
Electrophysiology. Hippocampi are removed and slices cut 400 μm thick and immediately transferred to an oxygenated holding chamber filled with artificial cerebrospinal fluid, acclimated and transferred to recording chambers. Micropipettes are backfilled with NaCl solution and placed in the stratum radiatum. Evoked field excitatory postsynaptic potentials (fEPSPs) are measured in current clamp mode. An ISO-flex stimulator paired with a 7.5-cm bipolar tungsten-stimulating electrode is used for presynaptic stimulation of the Schaffer collateral-commissural fibers. Signals are converted from analog to digital and electronic cycling and noise filtered. Basal synaptic transmission is assessed by determining input-output curves, generated by applying a stepwise 5 μA increase in stimulation intensity. Responses are elicited every 20 seconds with duration of 100 μs per pulse. Short-term plasticity is investigated by assessing paired-pulse facilitation (PPF) by applying two pulses with interpulse intervals of 35-300 ms. A baseline response of 30 min is recorded immediately after PPF, which is followed by θ-burst stimulation (TBS) given at 80% maximal response to induce LTP. fEPSPs are recorded at 50% maximal response every 20 seconds for 90 minutes.

[2] = molecular target: T1, α1D-AR (Homo sapiens, UniProt P25100); experiment: cAMP assay at α1D-AR; format: cell-based
T1 construct: expressed in transfected cells; host or cells: Rat-1 fibroblast cells
T1 sequence (P25100 1-572): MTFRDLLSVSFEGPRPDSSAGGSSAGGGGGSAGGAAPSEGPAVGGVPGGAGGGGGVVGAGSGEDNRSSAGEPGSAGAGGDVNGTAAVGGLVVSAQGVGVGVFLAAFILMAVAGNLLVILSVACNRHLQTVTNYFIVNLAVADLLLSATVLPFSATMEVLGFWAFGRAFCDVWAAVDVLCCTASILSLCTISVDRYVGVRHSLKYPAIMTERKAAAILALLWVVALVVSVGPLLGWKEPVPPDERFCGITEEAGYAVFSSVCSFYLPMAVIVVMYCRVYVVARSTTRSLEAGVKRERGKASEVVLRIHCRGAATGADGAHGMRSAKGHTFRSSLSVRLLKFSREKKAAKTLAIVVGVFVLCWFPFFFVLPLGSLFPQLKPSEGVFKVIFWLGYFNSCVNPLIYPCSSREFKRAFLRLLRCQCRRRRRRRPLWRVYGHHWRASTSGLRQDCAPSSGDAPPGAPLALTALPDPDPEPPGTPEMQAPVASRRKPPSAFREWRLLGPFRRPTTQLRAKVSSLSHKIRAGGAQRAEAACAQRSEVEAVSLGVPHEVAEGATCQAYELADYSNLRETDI
Experimental: (§1) cAMP assay: Cells expressing a single α1-adrenergic receptor subtype are washed and re-plated into 24-well plates in DMEM media without serum at approximately 2.4×10^4 cells/well. Cells are allowed to rest till the next day in a CO2 incubator at 37° C. The cells are washed twice with DMEM (no serum), then 1 ml of DMEM is added to each well. Cells are pre-incubated for 45 mins-1 hour at 37° C. in a CO2 incubator with 10 uM propranolol, followed by 100 uM IBMX for 30 minutes. Final DMSO concentration is at 0.05%. Norepinephrine or epinephrine is added in a dose response (1 dose per well) in addition to one of the Compounds 1-10 at one concentration (i.e. 10^−5M). Cells are incubated for another 30 mins at 37° C. in a CO2 incubator. The reaction is concluded by aspirating the media and adding 0.1M HCL. The mixture is incubated for 20 mins at room temperature. The cells are scraped and suspended until homogenous. The mixture is centrifuged at 1000 g for 10 mins and the supernatant assayed the same day according to a manufacturer's cAMP kit (Cayman Select Cyclic AMP EIA kit #501040).

[3] = molecular target: T2, α1A-AR (Homo sapiens, UniProt P35348); experiment: Rapid cAMP screening assay for PAM effects (norepinephrine constant at Emax); format: cell-based, human and mouse; settings: norepinephrine constant at 10^−4M; range over cell lines (fibroblasts, neuroblastoma, cardiomyocytes)
T2 sequence (P35348 1-466): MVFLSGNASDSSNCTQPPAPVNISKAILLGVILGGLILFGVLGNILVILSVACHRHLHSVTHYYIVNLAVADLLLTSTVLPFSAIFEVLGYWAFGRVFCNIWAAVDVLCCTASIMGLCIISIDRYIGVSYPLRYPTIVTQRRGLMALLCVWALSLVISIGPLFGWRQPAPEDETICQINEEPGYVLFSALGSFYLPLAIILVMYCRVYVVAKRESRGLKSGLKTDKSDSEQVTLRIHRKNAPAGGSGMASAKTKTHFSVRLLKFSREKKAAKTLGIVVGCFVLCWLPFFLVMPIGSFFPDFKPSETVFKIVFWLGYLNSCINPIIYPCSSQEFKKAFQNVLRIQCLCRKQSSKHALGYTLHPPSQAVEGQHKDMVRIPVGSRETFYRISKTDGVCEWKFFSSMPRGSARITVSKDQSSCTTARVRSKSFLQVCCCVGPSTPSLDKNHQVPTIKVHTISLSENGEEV
Experimental: as §1
In this assay, the concentration of norepinephrine is held constant at its Emax (10^−4M) (FIG. 10, red line). Compound 3 is then added in a dose-response (FIG. 10, blue line). Any signal above the red line is potentiation. […]

CC(C)Cc1c(OCC2=NCCN2)cccc1N(C)S(C)(=O)=O [Compound 3, N-[3-(4,5-Dihydro-1H-imidazol-2-ylmethoxy)-2-isobutyl-phenyl]-N-methyl-methanesulfonamide]
paired pulse ratio (PPR) vs untreated, female ([1]; female 3×TG mice): higher
basal synaptic transmission / synaptic strength (input-output) ([1]; female 3×TG mice, CA1, approaching significance): increase synaptic strength; also recorded: increased
long term potentiation (LTP) vs untreated ([1]; female AD mice, 12 months of age, CA1): statistically significant (p<0.01)
paired pulse ratio (PPR) vs untreated, male ([1]; male 3×TG mice): increased PPR
effect on norepinephrine cAMP response at the α1D-AR [2]: no effect
Emax of PAM potentiation [3]: 35-60 % of the norepinephrine's maximum response
